The structures appear in SMILES notation. “And” between values parts separate entries of the source, which are not always exact repeats. Identical values can stand only once.

These results are taken from patent US11311522B1 (Cavion, Inc., priority 2018, dated 2022).

The subject of one data set is cardiovascular function. Kind of data set: Cardiovascular telemetry in conscious dogs, oral.
Data set [1] is described as follows: Cardiovascular telemetry in conscious dogs, oral. The settings on record: dog.
A short description of data set [2]: MR2 capsules fed versus fasted PK. The format is in vivo. The settings on record: human, plasma, oral, 8 mg, single dose (1×8 mg) of MR2 CX-8998.
Text: Subjects will be screened for study eligibility within 28 days before administration of the first dose of study drug. Subjects who meet the study eligibility criteria will be admitted to the clinical research unit in the afternoon of the day before administration of the first dose of study drug (Period 1/Day −1).
The conditions of data set [3]: in vivo.
Data set [4] relates to patients with essential tremor. Kind of data set: T-CALM: TETRAS total score. The format is in vivo, human. On the procedure:
The Total TETRAS score was defined as the sum of the TETRAS performance subscale total score and the TETRAS ADL subscale score. TETRAS TOTAL score combines both patient reported outcome and objective measurement of tremor amplitude in a single score. Analyses of the TETRAS-ADL was conducted using the same type of ANCOVA model as described for the TETRAS-PS, using two-sided tests at the alpha=0.05 level of significance (FIG. 3 and Table 3).

Consider `CC(C)c1ccc(CC(=O)N[C@H](C)c2ccc(OCC(F)(F)F)cn2)cc1` [CX-8998], for which, in the data set with cardiovascular function (20 mg/kg oral), the “Peak change in QT interval” value is -27 ms and the “Peak change in heart rate” value was “+28 beats/min”. Also, in the data set with cardiovascular function (300 mg/kg oral), the “Peak decrease in QT interval” value is -14 ms and the “Peak increase in heart rate” value is “+47 beats/min”. Moreover, the NOEL with cardiovascular function (dog, in vivo) is listed as 2 mg/kg. Besides, the no-observed-adverse-effect level (NOAEL) (commonly the highest dose or exposure tested at which no adverse effect was seen) in data set [1] (in vivo) was found to be 20 mg/kg. Besides, the Cmax (usually the maximum level reached in the sampled fluid or tissue) in data set [1] (plasma, po, 20 mg/kg) was roughly 30 µM. In data set [2], the AUC (commonly concentration integrated over time) was determined as 7.57 µM·h. Also, the “Micronuclei induction in bone marrow result” value in data set [3] is “negative”. Besides, in data set [4] (Day 15 (8 mg BID)), the “Change from baseline in TETRAS-Total, LS mean” value was −7.5±1.42 and −7.5. Moreover, the “Change from baseline in TETRAS-Total, LS mean” value in data set [4] (Day 28 (10 mg BID)) was −9.0±1.66 and −9. Also, in data set [4] (TETRAS Total, Day 15), the “>5 to 10 point worsening” value is given as 0 n (%) and the “>10 point worsening” value is 0 n (%). Further, in data set [4] (TETRAS Total, Day 28), the 0 change is recorded as 0 n (%), the “>5 to 10 point worsening” value is recorded as 0 n (%) and the “>10 point worsening” value is 0 n (%).
